In test [1] the target is T1, succinate dehydrogenase (SDH) (Homo sapiens, UniProt P31040).
T1 construct: endogenous in cells; host or cells: KMS11 multiple myeloma cells, permeabilized
Briefly: SDH activity assay in permeabilized cells. The format is biochemical. As to conditions: TTFA-treated KMS11 cells. The text has this: (§1) Given reduced oxygen consumption rates (OCR) in sensitive cells, the activities of mitochondrial Complex I and II were examined. Mitochondrial Complex I and II receive electrons from the electron donors NADH or FADH2 respectively, that are transferred to the terminal electron acceptor (O2) via a series of redox reactions. Complex I or NADH:Coenzyme Q:oxidoreductase is the largest multimeric respiratory complex of ETC comprised of over 40 subunits with its catalytic subunit containing the NADH binding site. Electrons from NADH are transferred to FMN and then to FeS clusters and finally to ubiquinone where ubiquinone is reduced to ubiquinol. Complex II is the only enzyme that has a direct role both in the TCA cycle and ETC. […] Complex I activity was measured using an assay that relies on immunocapture of Complex I from freshly prepared cellular protein extracts. The NADH dehydrogenase activity of immunocaptured Complex I was determined by the oxidation of NADH and simultaneous reduction of the provided dye resulting in increase in absorbance. SDH and SQR activities were measured in live permeabilized cells, containing intact mitochondria pretreated with inhibitors of Complex I (rotenone), Complex III (antimycin) and Complex IV (sodium azide), allowing for selective measurement of SQR or SDH activity. […]

The subject of test [2] is CD38+ CD45− gated MM cells from myeloma patient bone marrow aspirates. Briefly: Ex vivo venetoclax sensitivity of myeloma patient samples, Annexin V staining. The format is cell-based, human.
Method: CD38-PE and CD45-APC-Cy7 were used to gate myeloma cells. n=50 biological independent samples.
Bone marrow aspirate samples from 50 MM patients were treated with three doses of venetoclax (0.01, 0.1 and 0.5 μM) or TTFA (100 μM), or the combination for 24 h and cell death was assessed by AnnexinV staining. […] A venetoclax ICso <0.1 μM is characterized as a sensitive sample.
Bone marrow aspirates or peripheral blood samples from consenting myeloma patients were diluted to 25 mL with PBS and over laid on lymphocyte separation media. Following centrifugation, the collected buffy coat was washed with PBS and resuspended in culture medium. Cells subject to various treatments were stained with anti-CD38-phyocerythrin and anti-CD45-allophycocyanin-Cy7 to identify MM cells. CD138+ cells were purified using MACS CD138+ human microbeads. IC50S of venetoclax alone or in combination with TTFA/IACS-010759 in myeloma samples were calculated using nonlinear regression (curve-fit) analysis under agonist vs. normalized response with variable slope.
Test [3] deals with T2, succinate ubiquinone reductase (SQR) activity of Complex II (Homo sapiens, UniProt O14521+Q99643).
T2 construct: endogenous in cells; host or cells: KMS11 multiple myeloma cells, permeabilized
In words: SQR activity assay in permeabilized cells. The format is biochemical. To be noted: TTFA-treated KMS11 cells, 24 h.
Excerpt: as §1, with “ubiquinol.” for “ubiquinol. Complex II is the only enzyme that has a direct role both in the TCA cycle and ETC.”
Succinate ubiquinone reductase (SQR) and succinate dehydrogenase (SDH) activity assays were performed by absorbance-based assays using different electron acceptors. […]

The subject of a further test is ATF4, NOXA. In words: Immunoblot of whole cell lysates for ATF4 and NOXA. The format is cell-based. As to conditions: 100 μM TTFA, 24 h, MM cells.

T1 sequence (P31040 43-664): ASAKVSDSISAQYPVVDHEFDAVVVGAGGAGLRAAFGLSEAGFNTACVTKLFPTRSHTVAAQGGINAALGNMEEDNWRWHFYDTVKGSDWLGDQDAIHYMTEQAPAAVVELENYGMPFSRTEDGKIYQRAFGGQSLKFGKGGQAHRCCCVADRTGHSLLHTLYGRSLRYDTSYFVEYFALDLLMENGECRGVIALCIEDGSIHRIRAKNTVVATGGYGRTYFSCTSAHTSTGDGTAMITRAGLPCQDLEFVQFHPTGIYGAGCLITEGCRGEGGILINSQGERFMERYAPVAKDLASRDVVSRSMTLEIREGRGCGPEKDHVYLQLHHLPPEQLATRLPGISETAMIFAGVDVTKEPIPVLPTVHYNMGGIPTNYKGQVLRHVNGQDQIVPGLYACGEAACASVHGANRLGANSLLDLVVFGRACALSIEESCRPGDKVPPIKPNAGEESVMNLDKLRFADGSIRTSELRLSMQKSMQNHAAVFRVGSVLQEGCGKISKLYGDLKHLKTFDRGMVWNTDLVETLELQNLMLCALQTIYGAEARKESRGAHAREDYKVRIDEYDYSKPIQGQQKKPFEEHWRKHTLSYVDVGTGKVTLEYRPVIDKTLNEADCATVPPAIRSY
T1 sequence (P21912 29-280 partner): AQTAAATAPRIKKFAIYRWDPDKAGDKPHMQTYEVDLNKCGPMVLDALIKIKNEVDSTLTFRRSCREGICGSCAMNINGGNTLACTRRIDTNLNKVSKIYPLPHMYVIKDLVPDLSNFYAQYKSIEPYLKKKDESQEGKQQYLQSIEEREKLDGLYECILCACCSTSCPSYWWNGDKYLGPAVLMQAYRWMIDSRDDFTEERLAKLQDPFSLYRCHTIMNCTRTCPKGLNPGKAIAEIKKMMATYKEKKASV
T1 sequence (Q99643 30-169 partner): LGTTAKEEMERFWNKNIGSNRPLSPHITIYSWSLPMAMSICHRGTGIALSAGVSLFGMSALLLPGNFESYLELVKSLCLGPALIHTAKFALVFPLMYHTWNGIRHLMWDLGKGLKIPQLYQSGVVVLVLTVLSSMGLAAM
T1 sequence (O14521 57-159 partner): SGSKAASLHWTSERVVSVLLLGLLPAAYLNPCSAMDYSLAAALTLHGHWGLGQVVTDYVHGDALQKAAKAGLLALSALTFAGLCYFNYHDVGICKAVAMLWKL
T2 sequence (Q99643 30-169): as the sequence (Q99643 30-169 partner) above
T2 sequence (O14521 57-159): as the sequence (O14521 57-159 partner) above
T2 sequence (P31040 43-664 partner): as the sequence (P31040 43-664) above
T2 sequence (P21912 29-280 partner): as the sequence (P21912 29-280 partner) above

In the case of `O=C(CC(=O)C(F)(F)F)c1cccs1` [TTFA, 4,4,4-trifluoro-1-(2-thienyl)-1,3-butanedione], in test [1], the SDH activity entry is “remained unaffected”. Also, the “cell death with combination” value in test [2] (100 μM TTFA plus 0.1 μM venetoclax, 24 h, 50 patient samples) is “significantly more cell death”. The “samples sensitized (venetoclax IC50 <0.1 μM)” value in test [2] (100 μM TTFA, 15 of 50 samples) is 30%. Moreover, the “samples with more than a 50% decrease in venetoclax IC50” value in test [2] (100 μM TTFA, 31 of 50 samples) worked out at 62%. Besides, the “samples with increased venetoclax sensitivity (IC50 Ven+TTFA vs Ven)” value in test [2] (100 μM TTFA, 46 of 50 samples) is 92%. In addition, in test [2] (of ten ex vivo resistant samples, TTFA treatment), the “samples with greater than 50% reduction in venetoclax IC50” value was “seven samples”. Moreover, in test [2] (t(11;14) patient relapsed on venetoclax, TTFA treatment), the “reduction in venetoclax IC50” value is recorded as “more than tenfold reduction”. Moreover, the “increased sensitivity to venetoclax” value in test [2] (ten ex vivo resistant samples with high SQR activity, TTFA treatment) was “all ten resistant samples showed increased sensitivity”. Further, the SQR activity entry in test [3] is “Significant reduction in SQR activity”. Also, in the test with ATF4, NOXA, the “protein expression of ATF4, NOXA” value is given as “Increased expression of ATF4, NOXA”.
